Assay results as given in patent US20230014226A1, “NEW COMPOUNDS AND METHODS” (BenevolentAI Bio Limited, priority 2019, published 2023).
Read-outs that look alike come from different tables or passages of the source.

How the values were obtained:
[1] = tested on: murine Hb9-GFP+ motor neurons in co-culture with ALS patient iAstrocytes; test: Human iAstrocyte - murine Hb9-GFP+ motor neuron co-culture; type: cell-based, human iAstrocytes; settings: for rescue of motor neuron survival in co-culture with patient-derived iAstrocytes (FIG. 3): 72 hours co-culture, dose dependant, maximum responses close to positive control (1 μM Nilotinib); for efficacy at very high concentrations (motor neuron survival): potentially due to compound toxicity
From the text: iNPCs (induced Neuronal Progenitor Cells) were derived from ALS patient fibroblasts as described previously (Meyer et al. 20148). iNPCs were differentiated into iAstrocytes by culturing in iAsrocyte media for at least 5 days. Murine motor neurons expressing the green fluorescent protein (GFP) under the Hb9 motor neuron-specific promoter (called from now on Hb9-GFP+) were differentiated from murine embryonic stem cells via embryoid bodies (EBs), as previously described (Haidet-Phillips et al. 20119, Wichterle et al. 200210).
iNPCs and mESC were split into iAstrocyte media and mEB media respectively on the same day, such that iAstrocytes and motor neurons will have both differentiated for 7 days when seeded together in co-culture.
Changed media on iAstrocytes, and split using accutase if 90-100% confluent 3 days after seeding from iNPCs. iAstrocytes were left a further 2 days in iAstrocyte media until seeded onto 384-well plates.
Diluted fibronection 1:400 in PBS, and 5 μL added per well. The plate was incubated with fibronectin at room temp for at least 5 mins.
The media was removed from iAstrocytes, and washed in PBS. 1 mL accutase per 10 cm plate was added, and incubated at 37° C. for 4 mins. The plate was tapped to dislodge any remaining iAstrocytes. The iAstrocytes were resuspended in iAstro media, and centrifuged at 200×g for 4 mins. The supernatant was removed, the falcon was flicked to vortex the cells, and resuspended the cells in an appropriate amount of iAstrocyte media. Counted cells using the haemocytometer, and diluted cells to an appropriate dilution for seeding. Seeded 1-2,000 iAstrocytes in 35 μL media on fibronectin-coated 384-well plates. Centrifuged 384-well plates at 1,760×rpm for 60 s using a PK120 (ALC) centrifuged (in neurogenetics) to collect media and cells to base of wells. Plates were left for 24 h for iAstrocytes to adhere to plate.
Drugs were delivered in 100% drug-grade DMSO to iAstrocyte media using an Echo550 liquid handler (Labcyte). 384-well plates were centrifuged at 1,760×rpm for 60 s using a PK120 (ALC) centrifuge.
2 plates of EBs were collected in a 50 mL tube and centrifuged for 4 mins at 200×g. The supernatant was removed from EBs after centrifugation, and washed in 10 mL PBS then centrifuged again for 4 mins at 200×g, and PBS wash removed.
For each 50 mL tube, 2.75 mL EB dissociation buffer was added and then 250 μL 200 U/mL (10×) Papain. The solution was gently pipetted up and down 10 times, using a P1000 pipette, against the side of the falcon (EB pellet was not pipetted directly). 50 mL tube was put in 37° C. water bath and incubated for 5 mins. Tube removed every 3 mins and gently shaken. After 5 mins, additional 2 mL of EB dissociation and 100 μL 200 U/mL (10×) Papain were added, which was then pipette again 5 times with P1000 pipette, and returned to the water bath for another 5 mins. It was returned to water bath as before, and incubated for no longer than 15-20 mins.
Centrifuged for 5 mins at 300×g. Each 50 mL tube, 2.7 mL EB dissociation was prepared, to which 300 μL FBS and 150 μL 0.5 mg/mL DNaseI was added. The supernatant was removed from dissociated EBs and 3 mL of the FBS/DNaseI mix was added, pipetted up and down with P1000 pipette about 5 times. 5 mL FBS was added very slowly to the bottom of the falcon containing the dissociated EBs. The supernatant was removed and the cells very gently resuspended in about 3 mL MN media (more used if the pellet is large) and filtered through a 40 μm filter. 1 mL extra MN media was added to wash the filter.
2,500 murine Hb9-GFP+ motor neurons were seeded per well in 10 μL motor neuron media on top of the pre-treated iAstrocytes. 384-well plates were centrifuged at 1,760×rpm for 60 s using a PK120 (ALC) centrifuge.
Day8 15 μL motor neuron media were added per well. Hb9-GFP+ motor neurons were imaged using an INCELL analyser 2000 (GE Healthcare)—day 1 of co-culture. […]

[2] = tested on: HUVEC; test: HUVEC Cell Viability (CV) assay; type: cell-based, human; settings: Homo sapiens, alamarBlue
Method: Cells are seeded at 10,000 cells/well in 96-well plates in HUVEC specific cell culture media. Cells are plated and cultured overnight (16-24 h) at 37° C. After the overnight culture, cells are washed and fed with the Assay Medium. Test compounds are applied and incubated with the cells for the designated time period, after which the cell viability is measured by alamarBlue method. […] The final DMSO concentration is 1%.
Fluorescence readings are recorded after the test compound and alamarBlue incubation. The excitation and emission wavelengths are 530 nm and 590 nm, respectively.
The percent of control is calculated by comparing the readings in the presence of the test compound to the vehicle control. Subsequently, the percent inhibition is calculated by subtracting the percent control activity from 100. IC50 values (concentration causing a half-maximal inhibition of the control value) are determined by non-linear regression analysis of the concentration-response curves using the Hill equation.
The reference compound used for this assay is Staurosporine.

[3] = tested on: HUVEC (human umbilical venous endothelial cells); test: HUVEC Tube Formation assay; type: cell-based
Method: HUVEC (human umbilical venous endothelial cells, 1.5×10^4/well, ATCC CRL-1730) are placed in an earlier prepared 96-well plate. Test substance and/or vehicle is then added to each well in a final concentration of 0.4% DMSO in growth medium under an atmosphere of 5% CO2 at 37° C. After an 18 h incubation period, morphology of the endothelial cell tubes, which resemble a capillary-like network, are evaluated by a confocal high-content imaging system. Disruption (anti-angiogenesis) of total tube length is measured from each photograph and determined relative to the vehicle control group. […] Compounds are screened at 30, 3, 0.3, 0.03 and 0.003 μM (or μg/mL) in triplicate.

[4] = tested on: SC-hCMs (stem cell cardiomyocytes); test: Cardiomyocyte assay (CRL), iPSC cardiomyocytes; type: cell-based, human; settings: for ΔΔ Na Spike Amp at 10 μM, 48 h (%): corrected by time matched controls
Method: All measurements were performed at physiological temperature in a tissue culture incubator (37° C.; 5% CO2). Test article, positive controls and vehicle were added in a sterile tissue culture hood.
At least 10 h before compound addition SC-hCMs were exposed to the fresh culture medium. Before compound addition a one-minute recording of field potentials and impedance signals (baseline) was obtained. Test articles, vehicle and positive controls were added as a 2× concentration. One-minute recordings were obtained 0.5, 1, 2, 24 and 48 h after test article addition.
At the time of drug application, culture medium was added to an independent 96 well plate that was incubated in a tissue culture incubator for 48 h. This culture medium was used as the blank of the cTnI release assay.
After the 48 h exposure recording, 150 μL of each well was centrifuged to remove debris. The supernatant was collected and frozen for later cTnI content analysis using an ELISA plate according the manufacturer's instructions (Abcam, cat #ab200016).
Data was stored on the Charles River Laboratories computer network for off-line analysis. Data acquisition was performed using RTCA Cardio Software.
Data analysis was performed using RTCA Cardio Software, Microsoft Excel and Matlab scripts. Data were reported as mean±SEM.
The following field potential parameters were quantitated: Sodium Spike amplitude, Sodium Spike Rate, field potential duration (FPD), Bazett corrected field potential duration (FPDcB), and dysrhythmic events if present.
The following impedance parameters were quantitated: Cell Index, peak amplitude, relaxation from peak to 50% amplitude (Rel50) and twitch duration.
The sodium spike is the voltage signal produced by the propagation of the depolarizing wave (positive peak) and the local activation of sodium channels (negative peak). The sodium spike amplitude is the voltage difference (in […]) between the positive and negative peaks of the sodium spike. The Sodium Spike Rate is a measure of the rate of sodium spike generation (spikes/min) produced by the spontaneous beating of stem cell cardiomyocytes.
Abnormal rhythm activity was characterized by the presence of the following proarrhythmic markers:
Triggered activity: Triggered activity (TA) is activity characterized by the presence of voltage oscillations during the repolarization period (Early After Depolarizations, EADs) or after the repolarization is completed (Delayed After Depolarizations, DADs). They are produced by different mechanisms. EADs are due to reactivation of sodium and calcium currents due to prolongation of the action potential. DADs are due to transient releases of calcium from intracellular calcium stores. Both EADs and DADs can trigger action potentials (ectopic beats, EB).
Impedance instability: Impedance instability (II) consist of small oscillations of the impedance signal during the slower relaxation phase of the impedance twitch sometimes associated with small oscillations of the field potential (FPO). […] II informs about the possibility of drug-induced delayed repolarization setting the background where more robust proarrhythmic markers like EADs and DADs occur.
The SEM of the difference was calculated according to the following equation ΔΔSEM=(SEMtreatment2+SEMcontrol2)0.5.
The statistical analysis includes 1) a Student paired t-test to evaluate the changes respect to baseline and, 2) a multi-comparison analysis (Dunnett's test) of A % changes respect to time matched controls. An alpha probability of 0.05 was considered significant.

[5] = tested on: α-synuclein in ReNcell VM Neuronal cells; test: Modulation of α-synuclein aggregation; type: cell-based; settings: for amount of α-synuclein present in ReNcell VM neuronal cells (FIG. 4): 6 days of compound treatment, antibodies Syn205 and MJF-14; for IC50: ReNcell VM, 100% = reduction equal to 10 μM KU0063794, 0% = 0.1% DMSO
Method: Compounds were assessed for their ability to modulate α-synuclein aggregation. ReNcell VM Neuronal cells were transduced with α-synuclein encoded adenovirus, and compounds were added after 24 hours. After 72 hours, compound was refreshed. After an additional 72 h, cells were fixated (a total of 6 days of compound treatment). Two distinct α-synuclein antibodies were added (Syn205 and MJF-14), imaging was performed on IN Cell 2200 at 10× magnification. Immunoreactivity is quantified by a high content algorithm. Compound data is normalized to a negative control (0.1% DMSO) and a positive control (10 μM KU0063794; CAS 938440-64-3).

Structure (SMILES): Cc1ccc(C(=O)Nc2cnn(C(C)C3CC3)c2)cc1C#Cc1cccnc1 (centres unmarked) [Example 17, N-[1-(1-cyclopropylethyl)-1H-pyrazol-4-yl]-4-methyl-3-[2-(pyridin-3-yl)ethynyl]benzamide]
- rescue of motor neuron survival in co-culture with patient-derived iAstrocytes (FIG. 3) [1]: rescue motor neuron survival
- efficacy at very high concentrations (motor neuron survival) [1]: reduction in efficacy at very high concentrations

Structure (SMILES): Cc1ccc(C(=O)Nc2cnn(C(C)(C)C)c2)cc1C#Cc1cccnc1 [Example 10, N-(1-tert-butyl-1H-pyrazol-4-yl)-4-methyl-3-[2-(pyridin-3-yl)ethynyl]benzamide]
- rescue of motor neuron survival in co-culture with patient-derived iAstrocytes (FIG. 3) [1]: rescue motor neuron survival

Structure (SMILES): Cc1cn(-c2cc(NC(=O)c3ccc(C)c(Nc4nccc(-c5cccnc5)n4)c3)cc(C(F)(F)F)c2)cn1 [Comparative Example 3, 4-methyl-N-[3-(4-methylimidazol-1-yl)-5-(trifluoromethyl)phenyl]-3-[(4-pyridin-3-ylpyrimidin-2-yl)amino]benzamide, reference compound]
- IC50 [2]: 3600 nM
- GI50 ([3]; 18 h incubation, read-out: Tube formation GI50): > 10 µM
- Proarrhythmic Markers at 10 μM, 48 h ([4]; 10 μM, 48 h): II and TA
- ΔΔ Na Spike Amp at 10 μM, 48 h (%) ([4]; 10 μM, 48 h): −96.2%

Structure (SMILES): Cc1cn(-c2cc(NC(=O)c3ccc(C)c(Nc4nccc(-c5cccnc5)n4)c3)cc(C(F)(F)F)c2)cn1 [nilotinib, Nilotinib]
- effect on sodium spike amplitude vs. control (given as reduction for nilotinib and Example 39) ([4]; 10 μM after 48 hours): 96.2%
- proarrhythmic markers observed ([4]; 10 μM, 48 h): triggered activity and impedance instability

Structure (SMILES): Cc1ccc(C(=O)Nc2ccc(CN3CCN(C)CC3)c(C(F)(F)F)c2)cc1C#Cc1cnc2cccnn12 [Comparative Example 2, 3-(imidazo[1,2-b]pyridazin-3-ylethynyl)-4-methyl-N-[4-[(4-methyl-1-piperazinyl)methyl]-3-(trifluoromethyl)phenyl]benzamide, reference compound]
- IC50 [2]: 320 nM
- GI50 ([3]; 18 h, read-out: Tube formation GI50 (μM)): 1.2 µM
- Proarrhythmic Markers at 10 μM, 48 h ([4]; 10 μM, 48 h): Q and RV
- ΔΔ Na Spike Amp at 10 μM, 48 h (%) ([4]; 10 μM, 48 h): (cells quiescent)

Structure (SMILES): Cc1ccc(C(=O)Nc2cnn(C(C)C)c2)cc1C#Cc1cccnc1 [Example 24, N-(1-isopropylpyrazol-4-yl)-4-methyl-3-[2-(3-pyridyl)ethynyl]benzamide]
- rescue of motor neuron survival in co-culture with patient-derived iAstrocytes (FIG. 3) [1]: rescue motor neuron survival
- efficacy at very high concentrations (motor neuron survival) [1]: reduction in efficacy at very high concentrations
- amount of α-synuclein present in ReNcell VM neuronal cells (FIG. 4) [5]: dose dependant reduction
- IC50 [5]: 1000 to 10000 nM

Structure (SMILES): Cc1ccc(C(=O)Nc2cc3n(n2)CCC3(C)C)cc1C#Cc1cccnc1 [Example 26, N-(4,4-dimethyl-5,6-dihydropyrrolo[1,2-b]pyrazol-2-yl)-4-methyl-3-[2-(3-pyridyl)ethynyl]benzamide]
- rescue of motor neuron survival in co-culture with patient-derived iAstrocytes (FIG. 3) [1]: rescue motor neuron survival
- amount of α-synuclein present in ReNcell VM neuronal cells (FIG. 4) [5]: dose dependant reduction
- IC50 [5]: 1000 to 10000 nM
